# Reference: patent US20110296540A1, “ASSAY FOR SCREENING ANTIDEPRESSANTS” (priority 2008, published 2011)
# Like-named read-outs stand apart in the source and are kept apart here.
# Legend:
# 5-HT1A autoreceptors [1] = biological target: T1, 5-HT1A autoreceptors (Mus musculus, UniProt Q64264); experiment: Whole cell recordings in the dorsal raphe, response to 5-HT1A agonist; format: cell-based; set-up: endogenous in cells; host or cells: Serotonergic neurons of the raphe nuclei in mice homozygous for tetO-1A with one copy of Pet-tTS; conditions: 1A-High mice vs. 1A-Low mice; 100 nM
# T1 sequence (Q64264 1-421): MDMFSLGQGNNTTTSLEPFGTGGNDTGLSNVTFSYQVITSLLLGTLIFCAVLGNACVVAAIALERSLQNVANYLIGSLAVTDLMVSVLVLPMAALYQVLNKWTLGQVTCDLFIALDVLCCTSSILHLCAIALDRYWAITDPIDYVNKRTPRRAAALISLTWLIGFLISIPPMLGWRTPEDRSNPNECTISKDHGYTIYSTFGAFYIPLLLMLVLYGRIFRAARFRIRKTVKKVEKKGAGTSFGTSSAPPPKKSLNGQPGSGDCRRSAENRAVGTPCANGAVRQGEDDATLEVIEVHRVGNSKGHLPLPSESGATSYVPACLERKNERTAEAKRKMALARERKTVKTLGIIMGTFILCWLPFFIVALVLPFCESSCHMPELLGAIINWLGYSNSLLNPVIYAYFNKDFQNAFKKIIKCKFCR
# From the text: Downward deflections reflect spontaneous synaptic activity.
# Much of this difference is accounted for by a smaller proportion of serotonergic neurons responding to the agonist challenge in the 1A-Low mice.
# 5-HT1A autoreceptors [2] = biological target: T1, 5-HT1A autoreceptors
# Method: (A) 8-OH DPAT-induced hypothermia in 1A-High and 1A-Low mice. Following establishment of baseline body temperature, animals received IP injections of 0.1 mg/kg 8-OHDAPT, 0.5 mg/kg 8-OH DPAT, or saline (N=5/dose/group). Values are expressed as core temperature change from the last recorded baseline temperature.
# C57BL/6Ntac mice [3] = experiment: Open Field paradigm, chronic corticosterone model; format: in vivo; conditions: 3-week antidepressant treatment in corticosterone-treated mice; imipramine 40, fluoxetine 18 mg/kg/day
# From the text: The procedure described previously was used (Dulawa et al., 2004). Motor activity was quantified in four Plexiglas open field boxes 43 times 43 cm2 (MED Associates, Georgia, Vt.). Two sets of 16 pulse-modulated infrared photobeams were placed on opposite walls 2.5-cm apart to record x-y ambulatory movements. Activity chambers were computer interfaced for data sampling at 100-ms resolution. The computer defined grid lines that divided each Open Field into center and surround regions, with each of four lines being 11 cm from each wall. Dependent measures in the center were the total time and the number of entries over a 30-min period of test. The whole session was also divided in […] to analyze the time spent in the center every 5 min. The overall motor activity was quantified as the total distance traveled (cm) or distance traveled in the center divided by total distance traveled.
# Mice were anesthetized with ketamine and xylazine (100 mg/ml ketamine; 20 mg/ml xylazine), placed in a stereotaxic frame and exposed to cranial irradiation using a Siemens Stabilopan X-ray system operated at 300 kVp and 20 mA. Animals were protected with a lead shield that covered the entire body, but left unshielded a 3.22×11-mm treatment field above the hippocampus (interaural 3.00 to 0.00) exposed to X-Ray. Dosimetry was done using a Capintec Model PR06G electrometer ionization chamber and Kodak Readypack Radiographic XV films. The corrected dose rate was approximately 1.8 Gy per min at a source to skin distance of 30 cm. The procedure lasted 2 min and 47 sec, delivering a total of 5 Gy. Three 5 Gy doses were delivered on days 1, 4 and 8.
# C57BL/6Ntac mice [4] = experiment: Forced Swim Test, chronic corticosterone model; format: in vivo; conditions: for immobility duration (FST): mean±SEM
# HPA axis = experiment: Stress evoked increase of corticosterone levels; format: in vivo, mice; conditions: acute swim stress; baseline conditions and after chronic corticosterone treatment
# Method: Adult male C57BL/6Ntac mice were exposed to a 6 minutes swim stress. […]. Blood was collected into ice-chilled tubes containing EDTA and centrifuged at 3000 rpm for 10 min (at 4° C.) for separation of plasma, and plasma samples were stored at −80° C. until assayed. […]; Diagnostic Systems Laboratories, Inc. Webster, Tex.; sensitivity limit: 20 ng/ml). ACTH was measured directly in plasma using an ImmuChem™ Double Antibody hACTH 1251 RIA kit (No. 07-106101; MP Biomedicals, LLC, Orangeburg, N.Y.) with a sensitivity limit ˜5.7 pg/ml. All samples were measured simultaneously to reduce inter-assay variability.
# [5] = tested on: tet0-1A homozygous mice that do not carry the tTS transgene; experiment: Control for the effects of doxycycline on baseline anxiety and depression-related behavior; format: in vivo; conditions: transgene-negative littermates
# From the text: FIGS. 27A-C Control for the effects of doxycycline on baseline anxiety and depression-related behavior.
# (C) Likewise, no differences were detected in the forced swim test on either the first (i) or second (ii) day of testing (N=47).
# This was accomplished using a novel bigenic system consisting of two parts: 1) insertion of the tet0 DNA regulatory element into the promoter region of the Htr1a gene, to create the tet0-1A allele and 2) raphe-specific expression of the tetracycline-dependent transcriptional suppressor (tTS) under the control of the previously characterized 540Z Pet-1 promoter fragment (P. M. Fisher et al., Nat Neurosci 9, 1362 (Nov., 2006)). […] Removal of doxycycline for four weeks beginning at postnatal day (PND) 50 creates an adult population of animals with lower expression of 5-HT1A autoreceptors (1A-Low) (FIG. 21b). Four weeks after doxycycline removal, suppression has reached maximal levels (data not shown).
smiles,measurement,setting,value
NCCc1c[nH]c2ccc(C(N)=O)cc12 [5-CT],average current elicited by agonist challenge in serotonergic neurons,5-HT1A autoreceptors [1],significantly higher
CCCN(CCC)C1CCc2cccc(O)c2C1 (stereo not shown) [8-OH DPAT],hypothermic response to 5-HT1A agonist challenge,"5-HT1A autoreceptors [2]; 1A-High mice, 0.1 and 0.5 mg/kg IP",robust and dose-dependent hypothermic response
same,hypothermic response to 8-OH DPAT,"5-HT1A autoreceptors [2]; 1A-High vehicle control mice, 0.5 mg/kg i.p.",robust hypothermic response
same,hypothermic response to 5-HT1A agonist challenge,"5-HT1A autoreceptors [2]; 1A-Low mice, detected only at the highest dose",attenuated response
CN(C)CCCN1c2ccccc2CCc2ccccc21 [imipramine],corticosterone-induced anxiety phenotype in the Open Field (time and entries in the center),C57BL/6Ntac mice [3],reversed
same,immobility duration (FST),"C57BL/6Ntac mice [4]; corticosterone treated animals, alone or with antidepressant",296.8 s
same,immobility duration (FST),C57BL/6Ntac mice [4]; non-corticosterone treated animals,298.5 s
same,"duration of immobility (FST), effect","C57BL/6Ntac mice [4]; two-way ANOVA, corticosterone 7 weeks, antidepressants last 3 weeks",decreased
same,stress induced corticosterone levels,HPA axis,had no effect
C[C@H]1c2cccc(O)c2C(=O)C2=C(O)[C@]3(O)C(=O)C(C(N)=O)=C(O)[C@@H](N(C)C)[C@@H]3[C@@H](O)[C@@H]21 [doxycycline],"effect on behavioral measures (Open Field, Light/Dark choice test, forced swim test)",[5],no effect
